Experimental findings from patent US20220259279A1, “ALGINATE-BASED MICROCAPSULATION FOR THE DELIVERY OF ALPHA-CGRP IN CARDIOVASCULAR DISEASES” (University of South Carolina, priority 2019, published 2022) are described below.

This series has as its system rat H9C2 cells. The series can be described thus: trypan-blue cell viability assay. Type of series: cell-based. As to conditions: 1 μM and 5 μM, 7 days, vs control-untreated cells. The protocol:
Two different cardiac cell lines, rat H9C2 cells and mouse HL-1 cells, and two different assays, trypan-blue cell viability assay and calcium dye fluorescent based assay, were used to determine the cytotoxicity of prepared alginate-αCGRP microcapsules.
Trypan-blue cell viability assay: Rat cardiac myoblast cell line, H9C2 cells, was cultured in complete culture medium containing Dulbecco's Modified Eagles' Medium (DMEM) supplemented with 10% fetal bovine serum (FBS), 4.5 gm/liter D-glucose, 1.5 gm/liter sodium bicarbonate, and antibiotic solution of 100 unit/ml penicillin and 100 μg/ml streptomycin. […] The viability of H9C2 cells in presence or absence of alginate-αCGRP microcapsules was determined by trypan blue assay. […] After 7 days of treatment, cells were trypsinized and counted by hemocytometer using trypan-blue exclusion method (Sigma) according to manufacturer's instructions. […]
Trypan-blue cell viability assay: The rat cardiac H9C2 cells were grown at 37° C. in a humidified incubator with 5% CO2 in complete culture medium (containing DMEM supplemented with 10% fetal bovine serum, FBS, 4.5 gm/liter D-glucose, and 1× penicillin/streptomycin). The viability of H9C2 cells in presence of alginate-α-CGRP microcapsules was determined by trypan-blue assay (Sigma). […] After 7 days of treatment, cells were trypsinized and counted by hemocytometer using trypan-blue exclusion method.

For the compound `CC(C)C[C@H](NC(=O)CNC(=O)[C@H](C)NC(=O)[C@H](CC(C)C)NC(=O)[C@H](CCCNC(=N)N)NC(=O)[C@H](Cc1c[nH]cn1)NC(=O)[C@@H](NC(=O)[C@@H](NC(=O)[C@@H]1CSSC[C@H](NC(=O)[C@@H](N)CO)C(=O)N[C@@H](CC(N)=O)C(=O)N[C@@H]([C@@H](C)O)C(=O)N[C@@H](C)C(=O)N[C@@H]([C@@H](C)O)C(=O)N1)C(C)C)[C@@H](C)O)C(=O)N[C@@H](CC(C)C)C(=O)N[C@@H](CO)C(=O)N[C@@H](CCCNC(=N)N)C(=O)N[C@@H](CO)C(=O)NCC(=O)NCC(=O)N[C@H](C(=O)N[C@H](C(=O)N[C@@H](CCCCN)C(=O)N[C@@H](CC(=O)O)C(=O)N[C@@H](CC(N)=O)C(=O)N[C@@H](Cc1ccccc1)C(=O)N[C@H](C(=O)N1CCC[C@H]1C(=O)N[C@H](C(=O)N[C@@H](CC(N)=O)C(=O)N[C@H](C(=O)NCC(=O)N[C@@H](CO)C(=O)N[C@@H](CCC(=O)O)C(=O)N[C@@H](C)C(=O)N[C@@H](Cc1ccccc1)C(N)=O)C(C)C)[C@@H](C)O)C(C)C)C(C)C)C(C)C` [α-CGRP-alone], the “viability of H9C2 cells (live cells, trypan blue)” value was “not significantly different”.
